Structures can show the parent of a compound that is named as a salt.
Test system: mice
Test: Dispel phlegm test of Naringin, Phenol Red excretion in trachea (Example 29)
Assay type: in vivo
Conditions: for Dispel phlegm ratio: group given drug / blank control group x 100%; for Excretion quantity of Phenol Red / Rectified excretion quantity of Phenol Red: mice, oral, X±S; for Rectified excretion quantity of Phenol Red: excretion quantity / weight of animal
Experimental: 1. […] Every group was 10 animals. Eight group were set including negative control group, positive control group, high dose group of Naringin, middle dose group of Naringin, low dose group of Naringin, high dose group of sodium salt of Naringin, middle dose group of sodium salt of Naringin, low dose group of sodium salt of Naringin. […]
• 1) Blank control group: physiological saline, 0.9% NaCl; • 2) Positive control group: 0.2g Tankejing was dissolve into 10 ml physiological saline and the sample concentration was 20 mg/ml to obtain the solution for positive control. • 3) low dose group of Naringin: 0.5 mg/ml solution of Naringin was prepared by weighting out the appropriate amount of 5 mg Naringin and dissolving it by ultrasonication in 10 ml physiological saline. • 4) middle dose group of Naringin: 1.5 mg/ml solution of Naringin was prepared by weighting out the appropriate amount of 15 mg Naringin and dissolving it by ultrasonication in 10 ml physiological saline. • 5) high dose group of Naringin: 4.5 mg/ml solution of Naringin was prepared by weighting out the appropriate amount of 45 mg Naringin and dissolving it by ultrasonication in 10 ml physiological saline. • 6) low dose group of sodium salt of Naringin: 0.5 mg/ml solution of sodium salt of Naringin was prepared by weighting out the appropriate amount of 5 mg sodium salt of Naringin and dissolving it by ultrasonication in 10 ml physiological saline. • 7) middle dose group of sodium salt of Naringin: 1.5 mg/ml solution of sodium salt of Naringin was prepared by weighting out the appropriate amount of 15 mg sodium salt of Naringin and dissolving it by ultrasonication in 10 ml physiological saline. • 8) high dose group of sodium salt of Naringin: 4.5 mg/ml solution of sodium salt of Naringin was prepared by weighting out the appropriate amount of 45 mg sodium salt of Naringin and dissolving it by ultrasonication in 10 ml physiological saline.
The calibration curve was calculated by concentration of Phenol Red as y-axis and OD value as x-axis. And the excretion account of Phenol Red in mice was quantitated by calibration curve. • 2) Animals were fasted for 12 hr before dosing. • 3) Animals were oral administered with labeled number, each animal was administered with 3 min and each group was accomplished in 30 min. • 4) After administered 30 min, every animal was injected 2 ml 5% Phenol Red solution via celiac injection. The time of every animal was 3 min. • 5): Every animal was executed with 3 min interval after celiac injection 30 min, and animal trachea was peeled off with forceps after neck skin sniped, which was riveted on operating table. • 6): plasma and Phenol Red adhered to trachea ektexine was sweeped by 0.9% NaCl solution with an injector. And filter paper was used to blot up the solution. • 7): Scissors cut down the animal trachea including thyroid cartilage and trachea back-end. • 8): The trachea was set in test tube with 1.5 ml 5% NaHCO3. • 9): The experiment of every animal was completed in 3 min. […] X indicates OD value; Y indicates excretion account of Phenol Red. • 14): Rectified excretion account of Phenol Red was calculated by account of Phenol Red and weight of animal. Statistical significance of the data was determined by Student's t-test with SPSS 8.0. Rectified excretion account of Phenol Red= Account of Phenol Red (ng) / weight of animal (kg).

Row | SMILES | Dispel phlegm ratio (5 mg/kg) | Dispel phlegm ratio (15 mg/kg) | Dispel phlegm ratio (45 mg/kg) | Excretion quantity of Phenol Red (5 mg/kg) | Rectified excretion quantity of Phenol Red (5 mg/kg) | Excretion quantity of Phenol Red (15 mg/kg) | Rectified excretion quantity of Phenol Red (15 mg/kg) | Excretion quantity of Phenol Red (45 mg/kg) | Rectified excretion quantity of Phenol Red (45 mg/kg) | dispel phlegm effect (high dose group compared to positive control group of Tankejing) | exudates increase of mice trachea (three doses (low, middle, high), versus negative control group)
1 | C[C@@H]1O[C@@H](O[C@H]2[C@H](Oc3cc(O)c4c(c3)O[C@H](c3ccc(O)cc3)CC4=O)O[C@H](CO)[C@@H](O)[C@@H]2O)[C@H](O)[C@H](O)[C@H]1O [sodium salt of Naringin] | 169.37% | 189.65% | 432.71% | 0.5250 ± 0.1265 ng | 26.1805 ± 6.9069 ng/kg | 0.5748 ± 0.1417 ng | 29.3153 ± 7.7189 ng/kg | 1.3115 ± 0.3232 ng | 66.8867 ± 17.6117 ng/kg |  | 
2 | C[C@@H]1O[C@@H](O[C@H]2[C@H](Oc3cc(O)c4c(c3)O[C@H](c3ccc(O)cc3)CC4=O)O[C@H](CO)[C@@H](O)[C@@H]2O)[C@H](O)[C@H](O)[C@H]1O [Naringin, 4', 5', 7-trihydroxyflavanone-7-rhamnoneglucoside] | 159.02% | 173.12% | 416.72% | 0.4914 ± 0.2215 ng | 25.5811 ± 11.8338 ng/kg | 0.5296 ± 0.2195 ng | 26.7597 ± 13.1502 ng/kg | 1.1488 ± 0.2431 ng | 64.4162 ± 18.7239 ng/kg | statistical better than Tankejing | statistical significance stimulate the exudates increase of mice trachea

— patent EP1591123A1, “USES OF NARINGENIN, NARINGIN AND SALTS THEREOF AS EXPECTORANTS IN THE TREATMENT OF COUGH, AND COMPOSITIONS THEREOF” (Su, Wei-wei, priority 2003, dated 2004)
